Here are results for 1 compound from patent publication US9877916B2, “Methods and compositions for treating aged skin” (ELC Management LLC, priority 2016, dated 2018).

SMILES strings stand for the structures.

For the assay, the system named is normal human dermal fibroblasts (NHDF) from a donor. The assay is described as follows: collagen induction assay (Pro-collagen Type I EIA) in aged fibroblasts. It is filed as cell-based. As to conditions: 72 hr, 18 ug/ml, positive control. As for the experimental part:
Moringa oleifera seed extract was tested at various concentrations for its ability to stimulate collagen production in normal human dermal fibroblasts (“NHDF”) from a donor in a collagen induction assay. Moringa oleifera extract diluted in dimethylsulfoxide (“DMSO”) (% concentrations 0.003125, 0.00625 and 0.0125), Moringa oleifera […] diluted in Dulbecco's Modified Eagle Medium supplemented with 10% Hyclone® bovine calf serum and 1% Cellgro® penicillin-streptomycin solution (“DMEM”) (% concentrations of 0.0000625, 0.000125, 0.00025, 0.0005), positive control (L-ascorbic acid, 18 ug/ml), and DMEM alone were tested. Cell Growth and Maintenance. Aged NHDF were obtained from ZenBio. Fibroblasts were cultured in DMEM 1× (Life Tech) supplemented with 10% bovine calf serum (Hyclone) and 1% PenStrep solution (Cellgro). Cells were regularly maintained; subcultured as needed. Normal human dermal fibroblasts (NHDF, aged) were plated on a 96-well plate in supplemented DMEM (as indicated above). […] Alamar Blue results were determined using a plate reader. Data was analyzed using the SoftMax Pro software and Excel. Collagen production was assessed using the Pro-collagen Type I collagen EIA Kit (Takara) as per manufacturer's protocol, exactly as described. Plate was read using the Gemini M2E plate reader and results were compared. […]

In the case of `O=C1O[C@H]([C@@H](O)CO)C(O)=C1O` [L-ascorbic acid (+Control), L-ascorbic acid], the “% increase in collagen induction” value is listed as “+16%”.
